Data as given in ChEMBL document CHEMBL5608217, “New potent EV-A71 antivirals targeting capsid” (Eur J Med Chem, 2024).
pEC50: −log10 of the molar value. Activity calls are given as the source filed them. The rule behind the calls is not given here.

Columns and labels:
[1] = system: Enterovirus A71; assay: Antiviral activity against Enterovirus A71 infected in human MRC5 cells assessed as reduction in viral replication incubated for 72 hrs by RT-qPCR analysis; format: functional, organism-based; settings: Enterovirus A, MRC5, 72 h
[2] = system: Enterovirus A71; assay: Antiviral activity against Enterovirus A71 infected in human RD cells assessed as reduction in viral replication incubated for 72 hrs by RT-qPCR analysis; format: functional, organism-based; settings: Enterovirus A
[3] = Cytotoxicity against human MRC5 cells; format: toxicity, cell-based
[4] = Cytotoxicity against human RD cells; format: toxicity, cell-based
[5] = Cytotoxicity against Chinese hamster CHO-K1 cells incubated for 24 hrs by neutral red dye uptake assay; format: toxicity, cell-based, Cricetulus griseus
[6] = Selectivity index, ratio of CC50 for cytotoxicity against human MRC5 cells to EC50 for antiviral activity against Enterovirus A71 infected in human MRC5 cells; format: toxicity, cell-based; settings: read-out: Ratio CC50/EC50
[7] = Genotoxicity in Chinese hamster CHO-K1 cells assessed as increase in micronucleated cell rate at […] incubated for 3 hrs in presence of Sprague-Dawley rat liver S9 fraction by Giemsa staining based micronucleus assay; format: toxicity, subcellular, Cricetulus griseus; settings: s9, 3 h, dose lower 1 g/L
[8] = Genotoxicity in Chinese hamster CHO-K1 cells assessed as increase in micronucleated cell rate at […] incubated for 3 hrs in absence of Sprague-Dawley rat liver S9 fraction by Giemsa staining based micronucleus assay; format: toxicity, Cricetulus griseus; settings: cho-k1, 3 h, dose lower 1 g/L
[9] = Selectivity index, ratio of CC50 for cytotoxicity against human RD cells to EC50 for antiviral activity against Enterovirus A71 infected in human RD cells; format: toxicity, cell-based; settings: read-out: Ratio CC50/EC50
[10] = system: Enterovirus A71; assay: Antiviral activity against Enterovirus A71 infected in human MRC5 cells assessed as inhibition of viral replication at 0.31 to 40 uM incubated for 72 hrs by RT-qPCR analysis relative to control; format: functional; settings: dose 0.31-40 µM
[11] = system: Enterovirus A71; assay: Antiviral activity against Enterovirus A71 infected in human RD cells assessed as inhibition of viral replication at 0.31 to 40 uM incubated for 72 hrs by RT-qPCR analysis relative to control; format: functional; settings: dose 0.31-40 µM
[12] = system: rhinovirus B14; assay: Antiviral activity against Human rhinovirus B14 infected in human HeLa-RH cells assessed as inhibition of virus induced cytopathic effect incubated for 3 days by MTS assay; format: functional, organism-based; settings: Rhinovirus B, 72 h

Compound `c1ccc2nc(SCc3ccc(-n4cncn4)cc3)cnc2c1` has a pEC50 [1] of 4.42, a pEC50 [2] of 5.17 and a CC50 [3] greater than 40 µM. For the same compound, the CC50 [4] was greater than 40 µM.
`Cc1ccc(-c2ccc(SCc3ccc(-n4cncn4)cc3)cc2)cc1` showed a pEC50 [1] of less than 4.70.
With `CCOc1ccc(-c2ccc(CSc3nc4cc(OC)ccc4o3)cc2)cc1` the pEC50 [1] was less than 4.70.
With `CCOc1ccc(-c2ccc(CSc3ccc(-c4ccc(CO)cc4)cc3)cc2)cc1` the pEC50 [1] was less than 4.70.
`CCOc1ccc(-c2ccc(SCc3ccc(-n4cncn4)cc3)nc2)cc1` showed a pEC50 [1] of less than 4.70.
With `CN1CCC(c2ccc(-c3ccc(CSc4ccc(-c5ccc(CO)cc5)cn4)cc3)cc2)CC1` the pEC50 [1] was less than 4.70.
Work on `FC(F)(F)c1ccc(-c2ccc(SCc3ccc(-n4cncn4)cc3)cc2)cc1` yielded a pEC50 [1] of less than 4.70.
In the case of `Cn1nccc1-c1ccc(SCc2ccc(-n3cncn3)cc2)nc1`, the pEC50 [1] was less than 4.70.
With `Cn1nccc1-c1ccc(SCc2ccc(-n3cncn3)cc2)cc1` the pEC50 [1] was 6.24, the pEC50 [2] was 5.36 and the CC50 [3] was greater than 20 µM. For the same compound, the CC50 [4] was greater than 40 µM, the CC50 at 24 h [5] was 44.8 µM and the selectivity ratio [6] was greater than 35. For the same compound, the Activity [7] was “Non-Toxic”, the Activity [8] was “Non-Toxic” and the selectivity ratio [9] was greater than 9. For the same compound, the “inhibition (INH)” value [10] was 100% and the “inhibition (INH)” value [11] was 100%.
Compound `OCc1ccc(-c2ccc(SCc3ccc(-n4cncn4)cc3)cc2)cc1` has a pEC50 [1] of less than 4.70.
Compound `O=Cc1ccc(-c2ccc(SCc3ccc(-n4cncn4)cc3)nc2)cc1` has a pEC50 [1] of less than 4.70.
For `COc1ccc2oc(SCc3ccc(-c4ccc(N(C)C)cc4)cc3)nc2c1`, the pEC50 [1] was less than 4.70.
With `OCc1ccc(-c2ccc(SCc3ccc(-c4ccc(N5CCOCC5)cc4)cc3)nc2)cc1` the pEC50 [1] was 5.20, the pEC50 [2] was 4.71 and the CC50 [3] was greater than 20 µM. It also gave a CC50 [4] greater than 40 µM, a CC50 at 24 h [5] of 45.8 µM and a selectivity ratio [6] greater than 3.1. For the same compound, the Activity [7] was “Non-Toxic”, the Activity [8] was “Non-Toxic” and the selectivity ratio [9] was greater than 2.
Work on `c1ccc2nc(SCc3ccc(-n4cncn4)cc3)ccc2c1` yielded a pEC50 [1] of 4.40, a pEC50 [2] of less than 4.40 and a CC50 [3] greater than 40 µM. It also gave a CC50 [4] greater than 40 µM.
In the case of `Cc1ccc2oc(SCc3ccc(-n4cncn4)cc3)nc2c1`, the pEC50 [1] was less than 4.70.
With `c1ncn(-c2ccc(CSc3ccc(-c4ccc(N5CCOCC5)cc4)cc3)cc2)n1` the pEC50 [1] was less than 4.70.
Compound `OCc1ccc(-c2ccc(SCc3ccc(-c4ccc(C(F)(F)F)cc4)cc3)nc2)cc1` has a pEC50 [1] of less than 4.70.
With `c1ccc2[nH]c(SCc3ccc(-n4cncn4)cc3)nc2c1` the pEC50 [1] was less than 4.70.
Work on `OCc1ccc(-c2ccc(SCc3ccc(-c4ccc(O)cc4)cc3)nc2)cc1` yielded a pEC50 [1] of less than 4.70.
`c1ccc2sc(SCc3ccc(-n4cncn4)cc3)nc2c1` showed a pEC50 [1] of less than 4.70.
Work on `Clc1ccc2oc(SCc3ccc(-n4cncn4)cc3)nc2c1` yielded a pEC50 [1] of less than 4.70.
For `CN(C)c1ccc(-c2ccc(CSc3ccc(-c4ccc(CO)cc4)cn3)cc2)cc1`, the pEC50 [1] was less than 4.70.
`COc1ccc2[nH]c(SCc3ccc(-n4cncn4)cc3)nc2c1` showed a pEC50 [1] of less than 4.40, a pEC50 [2] of less than 4.40 and a CC50 [3] greater than 40 µM. It also gave a CC50 [4] greater than 40 µM.
`OCc1ccc(-c2ccc(SCc3ccc(-n4cncn4)cc3)nc2)cc1` gave a pEC50 [1] of 6.54, a pEC50 [2] of 5.78 and a CC50 [3] greater than 20 µM. The CC50 [4] was greater than 40 µM, the CC50 at 24 h [5] was 41.3 µM and the selectivity ratio [6] was greater than 68. For the same compound, the Activity [7] was “Non-Toxic”, the Activity [8] was “Non-Toxic” and the selectivity ratio [9] was greater than 24. For the same compound, the inhibition [10] was “Active” and the inhibition [11] was “Active”.
With `CCOc1ccc(-c2ccc(CSc3ccc(-c4ccc(CO)cc4)cn3)cc2)cc1` the pEC50 [1] was less than 4.70.
In the case of `CN(C)c1ccc(-c2ccc(SCc3ccc(-n4cncn4)cc3)cc2)cc1`, the pEC50 [1] was less than 4.70.
For `c1ccc2oc(SCc3ccc(-n4cncn4)cc3)nc2c1`, the pEC50 [1] was less than 4.70.
`CCOc1ccc(-c2ccc(SCc3ccc(-n4cncn4)cc3)cc2)cc1` showed a pEC50 [1] of less than 4.70.
In the case of `COc1ccc2oc(SCc3ccc(-n4cncn4)cc3)nc2c1`, the pEC50 [1] was 5.78, the pEC50 [2] was 4.54 and the CC50 [3] was greater than 20 µM. For the same compound, the CC50 [4] was 22.1 µM, the CC50 at 24 h [5] was 32.1 µM and the selectivity ratio [6] was less than 1. For the same compound, the Activity [7] was “Non-Toxic” and the Activity [8] was “Non-Toxic”.
In the case of `Cc1cccc2c1[nH]c1nc(SCc3ccc(-n4cncn4)cc3)nnc12`, the pEC50 [1] was 4.58, the pEC50 [2] was 5.33 and the CC50 [3] was 15.6 µM. The CC50 [4] was 8.89 µM.
`CCOc1noc2cc(OCCC3CCN(c4ccc(C)nn4)CC3)ccc12` [VAPENDAVIR] showed a CC50 [3] greater than 20 µM and a CC50 [4] greater than 63 µM.
With `Fc1ccc(-c2ccc(SCc3ccc(-n4cncn4)cc3)cc2)cc1C(F)(F)F` the pEC50 [1] was less than 4.70.
In the case of `FC(F)(F)c1ccc2c(SCc3ccc(-n4cncn4)cc3)ccnc2c1`, the pEC50 [1] was 4.55, the pEC50 [2] was 4.90 and the CC50 [3] was greater than 40 µM. It also gave a CC50 [4] of 20.8 µM.
For `COc1cc(C[C@H](O)c2ccc(C#N)cc2)c([N+](=O)[O-])cc1OC`, the pEC50 [12] was 5.70.
